Common to all, as to test: inhibition of tumour cell growth, NCI panel, 48 h
The test system of test [1] is SK-MEL-28.
Test [2] deals with SF-268.
The subject of test [3] is NCI-H226.
The subject of test [4] is ACHN.
Test [5] relates to SN12C.
Test [6] has as its system T47D.
In test [7] the test system is K562.
Test [8] deals with TK-10.
The test system of test [9] is SK-OV-3.
Test [10] relates to SK-MEL-2.
The subject of test [11] is CCRF-CEM.
In test [12] the test system is HT-29.
Test [13] has as its system Hs-578T.
The test system of test [14] is SNB-75.
The subject of test [15] is MDA-MB-435.
In test [16] the test system is 786-0.
Test [17] concerns HL-60.
Test [18] concerns NCI-H460.
Test [19] concerns NCI-H522.
In test [20] the test system is SR.

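Exposure lasted 48 hours, with cells grown in 96-well plates and compounds tested at five concentrations. Here, GI50 denotes the concentration required for 50% inhibition of growth.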 Activity calls are given as the source filed them. Rule as the data show it: active = GI50 up to about 1.1 µM and inactive = higher.

As to `COc1cc(/C=C2\Cc3cc(OC)c(OC)cc3C2=O)cc(OC)c1`, the GI50 in test [1] was > 100 µM (inactive); in [2] it was 45.9 µM (inactive); in [3], > 100 µM (inactive); in test [4], > 58.2 µM (inactive); in [5], > 74.1 µM (inactive); in [6] it was > 100 µM (inactive). Also, the GI50 in test [7] was 0.479 µM (active); in test [8], 48 µM (inactive); in test [9], 17 µM (inactive); in [10], > 60 µM (inactive); in test [11], > 100 µM (inactive); in test [12], > 100 µM (inactive). Further, the GI50 was 22 µM (inactive) in test [13]; 9.53 µM (inactive) in [14]; 1.04 µM (active) in [15]; 19.2 µM (inactive) in test [16]; 3.18 µM (inactive) in [17]; 15.1 µM (inactive) in test [18]. For the same compound, in test [19], the GI50 was 3.74 µM (inactive).

In the case of `Cc1ccc(Cc2n[nH]c(=O)n2N2C(=O)c3ccccc3C2=O)cc1`, the GI50 in test [20], in [1], in [3], in test [4], in test [5] and in test [6] was > 100 µM (inactive) each time. Further, the GI50 in test [7], in test [8], in [10], in [11], in test [12] and in test [13] was > 100 µM (inactive) each time. Further, the GI50 in [14] is 91.4 µM (inactive); in [15], > 100 µM (inactive); in [16], > 100 µM (inactive); in test [18], > 100 µM (inactive).

In the case of `COC(=O)/C=C/c1ccc(OP(=O)(O)O)c(OC)c1`, the GI50 in [20], in test [1], in [2], in [3], in test [4] and in [5] was > 100 µM (inactive) throughout. In addition, the GI50 in [6], in test [8], in test [9], in [10], in test [11] and in test [12] was > 100 µM (inactive) throughout. For the same compound, the GI50 in [13], in test [14], in [15], in test [16], in test [18] and in test [19] was > 100 µM (inactive) in each case.

Consider `O=C(C/N=C(\CN(c1ccccc1)c1ccccc1)Oc1ccc(Cl)cc1Cl)n1ccnc1`, for which the GI50 in [20], in test [1], in [2], in [3], in test [4] and in [5] was > 100 µM (inactive) throughout. The GI50 in [6], in [7], in [8], in test [9], in test [10] and in test [11] was > 100 µM (inactive) in each case. For the same compound, the GI50 in test [12], in test [13], in test [14], in test [15], in [16] and in test [18] was > 100 µM (inactive) each time.

Consider `Cc1cc2c(O)c(c1)CN(Cc1ccccc1)Cc1cc(C)cc(c1O)CN(Cc1ccccc1)Cc1cc(C)cc(c1O)CN(Cc1ccccc1)C2`, for which the GI50 in test [1], in test [2], in [3], in test [4], in [5] and in test [6] was > 100 µM (inactive) throughout. Besides, the GI50 is > 100 µM (inactive) in [7]; > 100 µM (inactive) in test [8]; > 100 µM (inactive) in test [9]; 32.3 µM (inactive) in test [10]; > 100 µM (inactive) in test [11]; > 100 µM (inactive) in test [12]. The GI50 is > 100 µM (inactive) in [13]; 50.8 µM (inactive) in [14]; > 100 µM (inactive) in [15]; > 100 µM (inactive) in test [16]; > 100 µM (inactive) in [17]; > 100 µM (inactive) in test [18]. Further, in test [19], the GI50 was > 100 µM (inactive).

Turning to `O=C(O)Cc1ccc(/N=N/c2c(O)c(C(=O)O)cc3ccccc23)cc1`, the GI50 in [20], in test [1], in test [2], in [3], in [4] and in test [5] was > 100 µM (inactive) each time. The GI50 in test [6], in test [7], in test [8], in test [9], in [10] and in test [11] was > 100 µM (inactive) each time. Further, the GI50 in test [12], in [13], in test [14], in [15], in test [16] and in [17] was > 100 µM (inactive) each time. Besides, the GI50 in test [18] was > 100 µM (inactive).

As to `CCN(CC)c1nc(NC2CCCCC2)c2nc(N(CC)CC)nc(NC3CCCCC3)c2n1`, the GI50 in [20], in test [1], in [2], in [3], in test [4] and in [5] was > 100 µM (inactive) in each case. For the same compound, the GI50 in test [6], in test [7], in [8], in test [9], in test [11] and in test [12] was > 100 µM (inactive) throughout. For the same compound, the GI50 in test [13], in test [15], in test [16], in test [17] and in test [18] was > 100 µM (inactive) in each case.

`COc1ccc(CC(O)CN2CCOCC2)cc1` (stereo not given): the GI50 in test [20], in [1], in [2], in [3], in [4] and in test [5] was > 100 µM (inactive) throughout. For the same compound, the GI50 in test [6], in [7], in [8], in test [10], in [11] and in test [12] was > 100 µM (inactive) throughout. In addition, the GI50 in test [13], in [15], in test [16], in [17], in test [18] and in test [19] was > 100 µM (inactive) throughout.

As for `Cc1ccc(Cc2nnc(S)[nH]2)cc1`, the GI50 in test [20] is > 100 µM (inactive); in test [1], > 100 µM (inactive); in [3] it was > 100 µM (inactive); in test [4] it was 63.7 µM (inactive); in [5], > 100 µM (inactive); in [6], 40.8 µM (inactive). For the same compound, the GI50 is 94.8 µM (inactive) in test [7]; > 100 µM (inactive) in test [8]; > 100 µM (inactive) in test [9]; > 100 µM (inactive) in test [10]; 56.6 µM (inactive) in test [11]; > 100 µM (inactive) in [12]. Besides, the GI50 was 47.2 µM (inactive) in test [13]; > 100 µM (inactive) in test [14]; > 100 µM (inactive) in test [15]; 75.3 µM (inactive) in test [16]; 25.8 µM (inactive) in [17]; 78.2 µM (inactive) in test [18].

As to `CCOC(=O)C1(Cc2ccccc2)Cc2ccccc2C1=O` (stereo not given), the GI50 in test [20] was 22 µM (inactive); in [1], 24.8 µM (inactive); in test [2], 29.2 µM (inactive); in test [3], 19.7 µM (inactive); in test [4], 28.1 µM (inactive); in test [5] it was 27.7 µM (inactive). The GI50 in [6] is 28.6 µM (inactive); in [7], 24 µM (inactive); in test [8] it was 36.8 µM (inactive); in test [9] it was 30.8 µM (inactive); in test [10], 14.8 µM (inactive); in [11] it was 27.8 µM (inactive). Also, the GI50 was 23.6 µM (inactive) in test [12]; 35.1 µM (inactive) in [13]; 25.4 µM (inactive) in test [14]; 20 µM (inactive) in test [15]; 32.5 µM (inactive) in test [16]; 19.1 µM (inactive) in test [17]. In addition, the GI50 in test [18] was 27.2 µM (inactive).

Consider `O=C(O)CCC(NC(=O)/C(=C/c1ccccc1)NC(=O)c1ccccc1)C(=O)O` (stereo not given), for which the GI50 in test [1], in test [2], in [3], in [4], in test [5] and in test [6] was > 100 µM (inactive) each time. The GI50 in test [7], in test [8], in test [9], in [10], in test [11] and in test [12] was > 100 µM (inactive) each time. In addition, the GI50 in test [13], in test [14], in [15], in test [16], in test [17] and in test [18] was > 100 µM (inactive) each time. The GI50 in [19] is > 100 µM (inactive).

For the origin of these results see ChEMBL document CHEMBL1201862, “PubChem BioAssay data set” (2004).
